Experimental data as given in patent US8697380B2, “Method for detecting compounds modulating dimers of VFT domain membrane proteins” (CIS Bio International, priority 2009, dated 2014).

Biological target: mGluR2-mGluR2 dimer (Rattus norvegicus, UniProt P31421)
Conditions: for change in TRF520 signal in the presence of the compound: delay 50 μs, integration time 450 μs, BG-Lumi4-Tb/BC-fluorescein, dose-dependent; for maximum variation of TRF520 signal: dose-response up to 100 μM DCG-IV / 316 μM glutamate

Chain of mGluR2-mGluR2 dimer (P31421 23-872): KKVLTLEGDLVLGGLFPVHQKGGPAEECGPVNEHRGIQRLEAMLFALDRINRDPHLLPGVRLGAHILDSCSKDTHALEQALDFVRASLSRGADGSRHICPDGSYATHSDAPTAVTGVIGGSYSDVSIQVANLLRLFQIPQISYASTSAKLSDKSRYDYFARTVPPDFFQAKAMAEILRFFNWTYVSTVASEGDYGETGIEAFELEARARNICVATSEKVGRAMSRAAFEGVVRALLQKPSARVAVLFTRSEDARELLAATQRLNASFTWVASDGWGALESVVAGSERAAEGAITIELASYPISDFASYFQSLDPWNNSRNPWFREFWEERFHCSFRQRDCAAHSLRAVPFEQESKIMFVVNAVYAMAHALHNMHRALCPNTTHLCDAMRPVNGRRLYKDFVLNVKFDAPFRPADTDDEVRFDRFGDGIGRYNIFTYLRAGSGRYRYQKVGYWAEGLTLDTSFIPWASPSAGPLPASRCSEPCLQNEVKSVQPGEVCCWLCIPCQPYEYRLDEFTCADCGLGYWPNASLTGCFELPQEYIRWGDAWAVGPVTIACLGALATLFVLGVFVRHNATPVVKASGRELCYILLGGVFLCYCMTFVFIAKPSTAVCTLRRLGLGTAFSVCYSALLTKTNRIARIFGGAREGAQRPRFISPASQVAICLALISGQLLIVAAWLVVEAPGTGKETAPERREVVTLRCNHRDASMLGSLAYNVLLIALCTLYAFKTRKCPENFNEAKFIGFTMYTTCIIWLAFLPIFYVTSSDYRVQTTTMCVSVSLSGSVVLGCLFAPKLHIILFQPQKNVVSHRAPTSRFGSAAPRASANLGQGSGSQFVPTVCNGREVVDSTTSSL
Chain of mGluR2-mGluR2 dimer (P31421 23-872): as above

maximum variation of TRF520 signal [%] | EC50 (read-out: concentration necessary for obtaining a variation equal to half the maximum variation (close to the pharmacological EC50), TRF520 signal, printed value is given as the pharmacological EC50) [nM] | variation in TRF520 (glutamate 100 μM, in the absence of the antagonist LY341495) [%] | Compound | change in TRF520 signal in the presence of the compound | TRF520 signal for a given glutamate concentration, in the presence versus absence of the modulator (4-MPPTS 10 μM, glutamate 1-1000 μM)
30 | ~400 | – | N[C@H](C(=O)O)C1[C@@H](C(=O)O)[C@@H]1C(=O)O (stereo partly shown) [DCG-IV] | inhibiting the TRF520 signal in a dose-dependent manner | –
– | – | – | COc1ccccc1Oc1ccc(N(Cc2cccnc2)S(=O)(=O)CC(F)(F)F)cc1 [4-MPPTS] | – | greater decrease in signal
50 | – | 50 | N[C@@H](CCC(=O)O)C(=O)O [glutamate, L-glutamic acid] | decrease in TRF520 | –
